The values below are quoted from earlier work in patent publication US9603852B2, “Treatment of obesity and pulmonary arterial hypertension” (ALBERT EINSTEIN COLLEGE OF MEDICINE, INC., priority 2013, dated 2017).

As usually defined, the IC50 is the concentration that gives 50% inhibition.

Where two headings read alike, the source gives them in different places.

This data set deals with T1, rat PGT (Rattus norvegicus, UniProt Q00910).
T1 construct: expressed in transfected cells
As to conditions: cited from earlier work; for Inh (% of Ctl) 2.5 μM: 2.5 μM compound; for Inh (% of Ctl) 0.5 μM: 0.5 μM compound; for Inh (% of Ctl) 0.1 μM: 0.1 μM compound; for Inh (% of Ctl) 0.01 μM: 0.01 μM compound; for Inh (% of Ctl) 0.01 μM / Inh (% of Ctl) 0.05 μM: second part of Table 1; for Inh (% of Ctl) 0.05 μM: 0.05 μM compound.

Setting [1] is: second part of Table 1 (Cpd 130-151).

For the molecule `CCCCCCCC(=O)c1ccc(Nc2nc(NCCOCCOCCNC(=O)c3ccccc3)nc(Nc3ccc(O)cc3)n2)cc1` [Compound 76], the “Inh (% of Ctl) 2.5 μM” value was 39.9 % of Ctl.
Consider `O=C(NCCOCCOCCNc1nc(Nc2ccc(O)cc2)nc(Oc2ccc(C(=O)NCc3ccccc3)cc2)n1)c1ccccc1` [Compound 83], for which the “Inh (% of Ctl) 0.5 μM” value is on record as 4.1 % of Ctl and the “Inh (% of Ctl) 2.5 μM” value was 10.4 % of Ctl. Also, the “Inh (% of Ctl) 5 μM” value (5 μM compound) is 42.0 % of Ctl. Further, the IC50 ([3H]PGE2 uptake, MDCK cells with rat PGT) was 609 nM.
With `O=C(NCCOCCOCCNc1nc(Nc2ccc(O)cc2)nc(Nc2ccc(C(=O)NCc3ccccc3)cc2)n1)c1ccccc1` [Compound 116], the “Inh (% of Ctl) 0.1 μM” value (first part of Table 1) is given as 36.4 % of Ctl. Moreover, the “Inh (% of Ctl) 0.5 μM” value (0.5 µM) is listed as 59.4 % of Ctl.
Take `O=C(NCCOCCOCCNc1nc(Nc2ccc(O)cc2)nc(Nc2ccc(C(=O)NCc3cc(F)cc(F)c3)cc2)n1)c1ccccc1` [Compound 130]: the “Inh (% of Ctl) 0.01 μM” value is on record as 41.6 % of Ctl and the “Inh (% of Ctl) 0.05 μM” value is on record as 73.2 % of Ctl. For the same molecule, the “Inh (% of Ctl) 0.1 μM” value under setting [1] is recorded as 81.7 % of Ctl.
Regarding `O=C(NCCOCCOCCNc1nc(Nc2ccc(O)cc2)nc(Nc2ccc(C(=O)NCc3ccc(F)cc3F)cc2)n1)c1ccccc1` [Compound 131], the “Inh (% of Ctl) 0.01 μM” value is given as 22.3 % of Ctl and the “Inh (% of Ctl) 0.05 μM” value is given as 47.0 % of Ctl. The “Inh (% of Ctl) 0.1 μM” value under setting [1] is reported as 74.3 % of Ctl.
In the case of `N[C@@H](C(=O)NCCOCCNc1nc(Nc2ccc(O)cc2)nc(Nc2ccc(C(=O)NCc3ccccc3)cc2)n1)c1ccccc1` [Compound 132], the “Inh (% of Ctl) 0.01 μM” value was 15.0 % of Ctl and the “Inh (% of Ctl) 0.05 μM” value is reported as 22.1 % of Ctl. In addition, the “Inh (% of Ctl) 0.1 μM” value under setting [1] is recorded as 32.4 % of Ctl.
Turning to `N[C@H](Cc1ccccc1)C(=O)NCCOCCNc1nc(Nc2ccc(O)cc2)nc(Nc2ccc(C(=O)NCc3ccccc3)cc2)n1` [Compound 133], the “Inh (% of Ctl) 0.01 μM” value is on record as 4.3 % of Ctl and the “Inh (% of Ctl) 0.05 μM” value is recorded as 12.6 % of Ctl. The “Inh (% of Ctl) 0.1 μM” value under setting [1] is listed as 19.4 % of Ctl.
For `O=C(NCc1ccccc1)c1ccc(Nc2nc(NCCOCCNC(=O)c3ccccc3C(F)(F)F)nc(Nc3ccc(O)cc3)n2)cc1` [Compound 134], the “Inh (% of Ctl) 0.01 μM” value is listed as 14.0 % of Ctl and the “Inh (% of Ctl) 0.05 μM” value is reported as 27.7 % of Ctl. Moreover, the “Inh (% of Ctl) 0.1 μM” value under setting [1] is reported as 46.7 % of Ctl.
As for `O=C(NCCOCCNc1nc(Nc2ccc(O)cc2)nc(Nc2ccc(C(=O)NCc3ccccc3)cc2)n1)c1ccncc1` [Compound 135], the “Inh (% of Ctl) 0.01 μM” value was 13.2 % of Ctl and the “Inh (% of Ctl) 0.05 μM” value is reported as 28.4 % of Ctl.
As to `O=C(NCCOCCNc1nc(Nc2ccc(O)cc2)nc(Nc2ccc(C(=O)NCc3ccccc3)cc2)n1)c1ccc(F)cc1` [Compound 136], the “Inh (% of Ctl) 0.01 μM” value is 33.3 % of Ctl and the “Inh (% of Ctl) 0.05 μM” value is 64.1 % of Ctl. The “Inh (% of Ctl) 0.1 μM” value under setting [1] is 77.9 % of Ctl.
Take `COc1ccc(C(=O)NCCOCCNc2nc(Nc3ccc(O)cc3)nc(Nc3ccc(C(=O)NCc4ccccc4)cc3)n2)cc1` [Compound 137]: the “Inh (% of Ctl) 0.01 μM” value is recorded as 42.0 % of Ctl and the “Inh (% of Ctl) 0.05 μM” value is 64.9 % of Ctl. Besides, the “Inh (% of Ctl) 0.1 μM” value under setting [1] is 75.6 % of Ctl.
Take `O=C(NCCOCCNc1nc(Nc2ccc(O)cc2)nc(Nc2ccc(C(=O)NCc3ccccc3)cc2)n1)Nc1ccccc1` [Compound 139]: the “Inh (% of Ctl) 0.01 μM” value is reported as 16.3 % of Ctl and the “Inh (% of Ctl) 0.05 μM” value is given as 30.7 % of Ctl. Also, the “Inh (% of Ctl) 0.1 μM” value under setting [1] is given as 39.0 % of Ctl.
With `CC(=O)NCCOCCNc1nc(Nc2ccc(O)cc2)nc(Nc2ccc(C(=O)NCc3ccccc3)cc2)n1` [Compound 140], the “Inh (% of Ctl) 0.01 μM” value is 11.5 % of Ctl and the “Inh (% of Ctl) 0.05 μM” value is 4.5 % of Ctl. Also, under setting [1], the “Inh (% of Ctl) 0.1 μM” value was 10.9 % of Ctl.
In the case of `O=C(NCc1ccccc1)c1ccc(Nc2nc(NCCOCCNCc3ccccc3)nc(Nc3ccc(O)cc3)n2)cc1` [Compound 141], the “Inh (% of Ctl) 0.01 μM” value is recorded as 12.7 % of Ctl and the “Inh (% of Ctl) 0.05 μM” value is 22.0 % of Ctl. In addition, the “Inh (% of Ctl) 0.1 μM” value under setting [1] was 43.5 % of Ctl.
`O=C(NCCOCCOCCNc1nc(Nc2ccc(C(=O)NCc3ccc(F)cc3)cc2)nc(Nc2ccc3[nH]cnc3c2)n1)c1ccccc1` [Compound 142]: the “Inh (% of Ctl) 0.01 μM” value was 8.4 % of Ctl and the “Inh (% of Ctl) 0.05 μM” value was 20.1 % of Ctl. Also, under setting [1], the “Inh (% of Ctl) 0.1 μM” value is recorded as 39.2 % of Ctl.
For the molecule `O=C(NCCOCCOCCNc1nc(Nc2ccc(C(=O)NCc3ccc(F)cc3)cc2)nc(Nc2ccc(O)c(F)c2)n1)c1ccccc1` [Compound 143], the “Inh (% of Ctl) 0.01 μM” value is given as 33.7 % of Ctl and the “Inh (% of Ctl) 0.05 μM” value is given as 57.8 % of Ctl. Under setting [1], the “Inh (% of Ctl) 0.1 μM” value is 69.5 % of Ctl.
On to `COC(=O)c1cc(Nc2nc(NCCOCCOCCNC(=O)c3ccccc3)nc(Nc3ccc(C(=O)NCc4ccc(F)cc4)cc3)n2)ccc1O` [Compound 144], for which the “Inh (% of Ctl) 0.01 μM” value is 3.4 % of Ctl and the “Inh (% of Ctl) 0.05 μM” value is 5.8 % of Ctl. Further, under setting [1], the “Inh (% of Ctl) 0.1 μM” value was 10.8 % of Ctl.
For the molecule `O=C(NCc1ccc(F)cc1)c1ccc(Nc2nc(Nc3ccc(O)cc3)nc(Nc3ccc(O)cc3)n2)cc1` [Compound 145], the “Inh (% of Ctl) 0.01 μM” value is reported as 7.1 % of Ctl and the “Inh (% of Ctl) 0.05 μM” value was 3.1 % of Ctl. The “Inh (% of Ctl) 0.1 μM” value under setting [1] was 6.9 % of Ctl.
With `O=C(NCCOCCNc1nc(Nc2ccc(O)cc2)nc(Nc2ccc(C(=O)NCc3ccc(F)cc3)cc2)n1)c1ccccc1` [Compound 147], the “Inh (% of Ctl) 0.01 μM” value is 44.5 % of Ctl and the “Inh (% of Ctl) 0.05 μM” value is on record as 70.2 % of Ctl. In addition, the “Inh (% of Ctl) 0.1 μM” value under setting [1] is recorded as 79.5 % of Ctl.
Take `O=C(NCc1ccc(F)cc1)c1ccc(Nc2nc(Nc3ccc(O)cc3)nc(Nc3ccc(C(=O)NCc4ccc(F)cc4)cc3)n2)cc1` [Compound 148]: the “Inh (% of Ctl) 0.01 μM” value was 8.4 % of Ctl and the “Inh (% of Ctl) 0.05 μM” value was 12.9 % of Ctl. For the same molecule, the “Inh (% of Ctl) 0.1 μM” value under setting [1] is listed as 20.7 % of Ctl.
With `O=C(NCc1ccc(F)cc1)c1ccc(Nc2nc(Nc3ccc(O)cc3)nc(Nc3ccc(CNCc4ccccc4)cc3)n2)cc1` [Compound 149], the “Inh (% of Ctl) 0.01 μM” value is on record as 3.8 % of Ctl and the “Inh (% of Ctl) 0.05 μM” value was 9.1 % of Ctl. For the same molecule, under setting [1], the “Inh (% of Ctl) 0.1 μM” value was 17.6 % of Ctl.
On to `O=C(O)c1cccc(Nc2nc(NCCOCCOCCNC(=O)c3ccccc3)nc(Nc3ccc(C(=O)NCc4ccc(F)cc4)cc3)n2)c1` [Compound 150], for which the “Inh (% of Ctl) 0.01 μM” value is 4.2 % of Ctl and the “Inh (% of Ctl) 0.05 μM” value is recorded as 14.3 % of Ctl. Moreover, under setting [1], the “Inh (% of Ctl) 0.1 μM” value is listed as 23.9 % of Ctl.
In the case of `O=C(NCCOCCOCCNc1nc(NCCOCCOCCNC(=O)c2ccccc2)nc(Nc2ccc(O)cc2)n1)c1ccccc1` [Compound 151], the “Inh (% of Ctl) 0.05 μM” value is on record as 0.7 % of Ctl. For the same molecule, the “Inh (% of Ctl) 0.1 μM” value under setting [1] was 8.4 % of Ctl.
